As usually defined, the IC50 is the concentration that gives 50% inhibition. Low values mean inhibition by little substance, high ones a need for much substance.

Data on three compounds can be found in patent US6288073A, “Acronycine derivatives, preparation method and pharmaceutical compositions” (Adir et Compagnie, priority 1997, dated 2001).

The test system of one assay is Murine leukaemia L1210. Briefly: Cytotoxicity for L1210 cells in culture (Microculture Tetrazolium Assay). The note with it: Mus musculus, exposure 48 hours (4 periods of cell doubling), viable cells by Microculture Tetrazolium Assay. Format: cell-based. Here is the method:
Murine leukaemia L1210 was used in vitro. The cells are cultured in RPMI 1640 complete culture medium containing 10% foetal calf serum, 2 mM giutamine, 50 units/ml of penicillin, 50 μg/ml of streptomycin and 10 mM Hepes, pH: 7.4. The cells are distributed on microplates and exposed to the cytotoxic compounds for 4 periods of cell doubling, i.e. 48 hours. The number of viable cells is then quantified by means of a colorimetric assay, the Microculture Tetrazolium Assay (J. Carmichael et al., Cancer Res., 47, 936-942, (1987)). The results are expressed as IC50, the concentration of cytotoxic agent which inhibits the proliferation of the treated cells by 50%.

Assay [1] deals with Line P 388 (murine leukaemia). Briefly: Anti-tumour activity on line P 388 in vivo. Also on record: species or system mice. The note with it: for % T/C: P 388 inoculated i.p. into female B6D2F1 mice, product i.p. on day 1 at the optimum dose; for Anti-tumour activity on line P 388 (in words): P 388 model in B6D2F1 mice, i.p., d1. Here is the method:
Line P 388 (murine leukaemia) was supplied by the National Cancer Institute (Frederick, USA). The tumour cells (10^6 cells) were inoculated on day 0 into the peritoneal cavity of female B6D2F1 mice (Iffa Credo, France). Six mice weighing from 18 to 20 g were used for each experimental group. The products were administered by the intraperitoneal route on day 1.
The anti-tumour activity is expressed as % TIC: [formula]

Assay [2] has as its system Human Colon Carcinoma HT29. Briefly: Anti-tumour activity on human colon carcinoma HT29 grafted onto nude mice. Format: in vivo, nude mice (human HT29 xenograft). An excerpt: Line HT29 was supplied by the ATCC (American Type Culture Collection, Rockville, USA). The tumour cells were inoculated into female nude Swiss mice (10^7 cells per animal) by the subcutaneous route. The tumours were then removed and cut into fragments, which were grafted onto nude mice by the subcutaneous route. Once the tumour volume had reached from 50 to 100 mm^3, the mice were distributed into experimental groups containing 8 animals (control group) or 6 animals (treated groups) (day 0). The products were administered by the i.v. route once per week for 3 weeks. The tumours were measured twice per week and the tumour volumes were calculated according to the formula: volume (mm^3)=length (mm)×width^2 […]/2 [formula]
with V0 and Vt being the initial volume and the volume at measurement time t, respectively.

Molecules are shown by their SMILES.

In the assay on Murine leukaemia L1210, `COc1cc2c(c3c1c(=O)c1cc4ccccc4cc1n3C)[C@H]1OC(=O)O[C@H]1C(C)(C)O2` (relative stereo) [Example 7, cis-7-Methoxy-4,4,15-trimethyl-3a,8,15,15c-tetrahydro-4H-benzo[b][1,3]dioxolo[4',5':4,5]pyrano[3,2-h]acridine-2,8-dione] gave an IC50 of 0.023 µM. Further, in assay [1], the “% T/C” value was determined as 327% and the “Anti-tumour activity on line P 388 (in words)” value was “very active”.

Take `COc1cc2c(c3c1c(=O)c1ccccc1n3C)C=CC(C)(C)O2` [Acronycine]: half-maximal inhibition in the assay on Murine leukaemia L1210 (IC50) was put at 27 µM. Besides, in assay [1], the “% T/C” value is recorded as 125% and the “Anti-tumour activity on line P 388 (in words)” value is on record as “only marginally active”.

Take `COc1cc2c(c3c1c(=O)c1cc4ccccc4cc1n3C)[C@@H](OC(C)=O)[C@@H](OC(C)=O)C(C)(C)O2` (relative stereo) [Example 5, (±)-cis-1,2-Diacetoxy-4-methoxy-3,3,14-trimethyl-2,3,7,14-tetrahydro-1H-benzo[b]pyrano[3,2-h]acridin-7-one]: the “Anti-tumour activity on line HT29 (in words)” value in assay [2] (HT29 model in nude mice, i.v.) is “very active”. In assay [2] (HT29 s.c. grafts in nude Swiss mice, i.v. d 0, 7, 14 at optimum dose, tumour volume), the “% T/C on day 32” value worked out at 17%. Moreover, the “inhibition of growth of the HT29 tumour” value in assay [2] (on day 32, HT29 s.c. grafts in nude mice, i.v. once per week for 3 weeks) turned out to be 83%.
